In patent US20230118577A1, “NEUROACTIVE STEROIDS AND PHARMACEUTICAL COMPOSITION CONTAINING THE SAME” (Brii Biosciences, Inc., priority 2020, published 2023):

What was measured:
[1] = molecular target: T1, GABAA α1β2γ2 (Homo sapiens, UniProt P14867+P47870); assay: Automated patch clamp electrophysiology (SyncroPatch), PAM mode, GABAA α1β2γ2 cell line; format: cell-based; conditions: PAM mode; for EC50: HEK293 cells expressing human GABAA α1β2γ2, GABA EC20 14 μM, read-out: GABAA α1β2γ2 PAM EC50; for Emax: maximum fold increase in current relative to Allopregnanolone, GABA EC20 14 μM, read-out: GABAA α1β2γ2 PAM % Emax (to Allo)
T1 construct: expressed in transfected cells; host or cells: HEK293 expressing the Tetracycline repressor protein
From the text: (§1) Cellular electrophysiology was used to measure the pharmacology properties of the GABA receptor modulators. The GABAA channels are expressed in stable cell lines described herein. The parental cell line used to express the human GABAA channels is the human embryonic kidney (HEK293) cell line expressing the Tetracycline repressor protein to support inducible expression of the target proteins.
(§2) For the GABAA α4β3δ cell line, the α4 and β3 subunits are under control of tetracycline inducible expression system, while the δ subunit is constitutively expressed. For the GABAA α1β2γ2 cell line, the α1 and β2 subunits are under control of tetracycline inducible expression system, whist the γ2 subunit is constitutively expressed.
(§3) Assessment of the compounds against GABAA α1β2γ2 and GABAA α4β3δ was performed using the SyncroPatch automated platform in positive allosteric modulator (PAM) mode. Six concentrations of 20 nM, 62 nM, 185 nM, 555 nM, 1667 nM and 5000 nM were tested across the plate, with a single concentration of compound per well. A minimum of 3 cells were obtained per each concentration of a compound.
(§4) Automated patch clamp-recordings were performed using the SyncroPatch 384PE. The voltage protocol generation and data collection were performed with PatchController384 V1.6.6 and Data Controller V1.6.0. A steady state voltage pulse at −80 mV was applied during the assay.
(§5) The stacked addition protocol was used, in which γ-aminobutyric acid (GABA) was rapidly applied and then washed off from the cell. To test for positive allosteric modulator activity (PAM), first the agonist GABA EC20 (EC20: 10 μM for GABAA α4β3δ channel and 14 μM GABA for the GABAA α1β2γ2 channel) was applied twice (with wash steps in-between) as a control and to show activation reproducibility, followed by a 1-2 minutes pre-incubation of the tested compound and then re-application of GABA EC20 in the presence of a testing compound. Finally, following a further wash step, maximum GABA (10 mM) was applied.
(§6) An Allopregnanolone concentration response was tested as the control PAM on the compound plates. The fold increase was generated using the following equation, (Icomp/Icontrol)−1, where Icomp is the current amplitude in the presence of the compound and Icontrol is the current amplitude in the presence of GABA EC20 alone. This builds an EC50 concentration-response curve, where 0 represents no PAM activity and >0 represents PAM activity.
(§7) A maximum % Emax for each compound is generated using the following equation, (IMaxComp/IAveMaxAllo)*100, where IMaxcomp is the individual maximum fold increase in current for each compound and IAveMaxAllo is the average maximum fold increase generated in the presence of Allopregnanolone. The resultant % Emax values are then averaged. The compound and Allopregnanolone values were obtained from separate cells which were tested in the same compound run. Two GABAA subtypes were tested against each of the compounds as well as the positive control, Allopregnanolone.

[2] = molecular target: T2, GABAA α4β3δ (Homo sapiens, UniProt P28472+P48169); assay: Automated patch clamp electrophysiology (SyncroPatch), PAM mode, GABAA α4β3δ cell line; format: cell-based; conditions: PAM mode, GABA EC20 10 μM; for EC50: HEK293 cells expressing human GABAA α4β3δ, read-out: GABAA α4β3δ PAM EC50; for Emax: maximum fold increase in current relative to Allopregnanolone, read-out: GABAA α4β3δ PAM % Emax (to Allo)
T2 construct: expressed in transfected cells; host or cells: HEK293 expressing the Tetracycline repressor protein
From the text: as §1, §2, §3, §4, §5, §6, §7

T1 sequence (P14867 28-456): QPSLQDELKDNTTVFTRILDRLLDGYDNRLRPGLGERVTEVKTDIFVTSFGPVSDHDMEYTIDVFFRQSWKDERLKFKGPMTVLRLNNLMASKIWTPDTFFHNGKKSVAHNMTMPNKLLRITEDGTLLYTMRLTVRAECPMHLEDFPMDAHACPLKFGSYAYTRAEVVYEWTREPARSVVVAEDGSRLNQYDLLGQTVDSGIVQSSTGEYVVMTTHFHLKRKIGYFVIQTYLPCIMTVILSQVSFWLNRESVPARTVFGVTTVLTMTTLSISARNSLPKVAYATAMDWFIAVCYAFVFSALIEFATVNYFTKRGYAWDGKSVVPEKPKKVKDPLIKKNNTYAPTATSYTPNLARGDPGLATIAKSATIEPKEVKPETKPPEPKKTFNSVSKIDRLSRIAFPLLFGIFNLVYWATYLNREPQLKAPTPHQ
T1 sequence (P47870 25-512 limits assumed): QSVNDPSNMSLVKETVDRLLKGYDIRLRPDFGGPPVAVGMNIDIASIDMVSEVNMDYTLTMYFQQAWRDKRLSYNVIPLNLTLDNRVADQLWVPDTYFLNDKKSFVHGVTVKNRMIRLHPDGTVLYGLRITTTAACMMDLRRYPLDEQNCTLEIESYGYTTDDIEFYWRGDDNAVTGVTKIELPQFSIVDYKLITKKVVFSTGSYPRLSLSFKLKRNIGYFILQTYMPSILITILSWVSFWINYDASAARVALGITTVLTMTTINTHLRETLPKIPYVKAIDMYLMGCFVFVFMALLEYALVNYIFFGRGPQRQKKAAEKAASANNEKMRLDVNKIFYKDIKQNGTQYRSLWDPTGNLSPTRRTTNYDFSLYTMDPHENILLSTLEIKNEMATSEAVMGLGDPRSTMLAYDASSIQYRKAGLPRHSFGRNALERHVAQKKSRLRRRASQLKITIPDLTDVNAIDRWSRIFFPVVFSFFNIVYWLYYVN
T1 sequence (P18507 40-475 partner): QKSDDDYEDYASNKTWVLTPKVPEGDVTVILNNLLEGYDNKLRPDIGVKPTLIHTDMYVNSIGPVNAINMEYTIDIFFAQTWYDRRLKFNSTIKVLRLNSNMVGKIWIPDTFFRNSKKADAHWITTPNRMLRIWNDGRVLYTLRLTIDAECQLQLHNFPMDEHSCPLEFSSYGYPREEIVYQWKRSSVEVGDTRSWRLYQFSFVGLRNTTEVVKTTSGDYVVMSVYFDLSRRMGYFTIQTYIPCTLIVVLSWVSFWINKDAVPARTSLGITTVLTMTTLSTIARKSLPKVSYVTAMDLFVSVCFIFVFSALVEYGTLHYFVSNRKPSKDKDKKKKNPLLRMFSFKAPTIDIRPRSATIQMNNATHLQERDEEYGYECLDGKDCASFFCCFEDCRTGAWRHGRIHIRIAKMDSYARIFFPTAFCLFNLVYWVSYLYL
T2 sequence (P48169 36-554): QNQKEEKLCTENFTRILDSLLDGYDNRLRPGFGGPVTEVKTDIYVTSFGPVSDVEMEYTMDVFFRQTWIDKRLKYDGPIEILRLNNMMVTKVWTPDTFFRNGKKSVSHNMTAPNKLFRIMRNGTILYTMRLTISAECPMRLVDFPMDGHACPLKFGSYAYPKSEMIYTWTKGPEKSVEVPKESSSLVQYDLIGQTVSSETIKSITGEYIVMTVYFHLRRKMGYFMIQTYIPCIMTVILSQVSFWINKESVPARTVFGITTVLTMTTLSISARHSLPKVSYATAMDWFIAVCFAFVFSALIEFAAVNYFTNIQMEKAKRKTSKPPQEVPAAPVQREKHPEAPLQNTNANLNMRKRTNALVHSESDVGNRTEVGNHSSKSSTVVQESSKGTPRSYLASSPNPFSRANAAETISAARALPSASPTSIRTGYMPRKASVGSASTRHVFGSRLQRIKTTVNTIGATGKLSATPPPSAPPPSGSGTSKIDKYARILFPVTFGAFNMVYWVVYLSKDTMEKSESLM
T2 sequence (P28472 26-473): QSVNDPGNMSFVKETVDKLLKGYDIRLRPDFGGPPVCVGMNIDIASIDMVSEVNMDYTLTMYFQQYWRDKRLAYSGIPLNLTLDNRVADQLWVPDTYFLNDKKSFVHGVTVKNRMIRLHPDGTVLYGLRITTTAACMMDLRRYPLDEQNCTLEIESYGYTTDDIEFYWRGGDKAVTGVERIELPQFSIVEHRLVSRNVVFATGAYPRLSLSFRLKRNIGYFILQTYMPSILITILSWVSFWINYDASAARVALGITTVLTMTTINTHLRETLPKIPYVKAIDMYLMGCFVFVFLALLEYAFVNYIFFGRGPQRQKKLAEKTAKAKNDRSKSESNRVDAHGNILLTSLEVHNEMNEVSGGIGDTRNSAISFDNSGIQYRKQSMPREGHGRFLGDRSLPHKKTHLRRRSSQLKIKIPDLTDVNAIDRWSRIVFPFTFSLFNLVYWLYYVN
T2 sequence (O14764 17-452 partner limits assumed): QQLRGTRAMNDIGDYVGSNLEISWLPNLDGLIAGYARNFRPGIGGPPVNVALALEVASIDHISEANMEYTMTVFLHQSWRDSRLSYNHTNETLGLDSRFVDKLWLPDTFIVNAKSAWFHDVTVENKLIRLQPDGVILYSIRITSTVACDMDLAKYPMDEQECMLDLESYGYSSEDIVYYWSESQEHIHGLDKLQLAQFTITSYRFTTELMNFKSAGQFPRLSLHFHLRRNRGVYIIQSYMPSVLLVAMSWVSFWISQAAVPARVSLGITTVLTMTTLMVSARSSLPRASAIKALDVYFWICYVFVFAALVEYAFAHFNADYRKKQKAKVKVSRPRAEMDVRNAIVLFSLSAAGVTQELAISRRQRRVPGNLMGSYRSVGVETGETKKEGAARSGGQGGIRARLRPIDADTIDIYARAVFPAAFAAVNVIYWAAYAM

| Structure (SMILES) | EC50 [1] | Emax [1] | EC50 [2] | Emax [2] |
| --- | --- | --- | --- | --- |
| C[C@@]1(O)CC[C@H]2[C@H](CC[C@@H]3[C@@H]2CC[C@]2(C)[C@@H](C4(C(F)F)COC4)CC[C@@H]32)C1 [Example 19, (3R,5R,8R,9R,10S,13S,14S,17S)-17-[3-(difluoromethyl)oxetan-3-yl]-3,13-dimethyl-2,4,5,6,7,8,9,10,11,12,14,15,16,17-tetradecahydro-1H-cyclopenta[a]phenanthren-3-ol] | < 500 nM | > 90% | < 500 nM | > 90% |
| C[C@@]1(O)CC[C@H]2[C@H](CC[C@@H]3[C@@H]2CC[C@]2(C)[C@@H](C4(CC(F)(F)F)COC4)CC[C@@H]32)C1 [Example 20, (3R,5R,8R,9R,10S,13S,14S,17S)-3,13-dimethyl-17-(3-(2,2,2-trifluoroethyl)oxetan-3-yl)-2,4,5,6,7,8,9,10,11,12,14,15,16,17-tetradecahydro-1H-cyclopenta[a]phenanthren-3-ol] | < 500 nM | > 90% | < 500 nM | > 90% |
| CC1([C@H]2CC[C@H]3[C@@H]4CC[C@@H]5C[C@H](O)CC[C@]5(C)[C@H]4CC[C@]23C)COC1 [Example 6, (3R,5R,8R,9S,10S,13S,14S,17S)-10,13-dimethyl-17-(3-methyloxetan-3-yl)-2,3,4,5,6,7,8,9,11,12,14,15,16,17-tetradecahydro-1H-cyclopenta[a]phenanthren-3-ol] | < 500 nM | > 90% | 1000 to 1500 nM | > 90% |
| C[C@@]1(O)CC[C@H]2[C@H](CC[C@@H]3[C@@H]2CC[C@]2(C)[C@@H](C4(CC5CC5)COC4)CC[C@@H]32)C1 [Example 9, (3R,5R,8R,9R,10S,13S,14S,17S)-17-[3-(cyclopropylmethyl)oxetan-3-yl]-3,13-dimethyl-2,4,5,6,7,8,9,10,11,12,14,15,16,17-tetradecahydro-1H-cyclopenta[a]phenanthren-3-ol] | < 500 nM | 50 to 90% | > 1500 nM | > 90% |
| C[C@@]1(O)CC[C@H]2[C@H](CC[C@@H]3[C@@H]2CC[C@]2(C)[C@@H](C4(C5CC5)COC4)CC[C@@H]32)C1 [Example 21, (3R,5R,8R,9R,10S,13S,14S,17S)-17-(3-cyclopropyloxetan-3-yl)-3,13-dimethyl-2,4,5,6,7,8,9,10,11,12,14,15,16,17-tetradecahydro-1H-cyclopenta[a]phenanthren-3-ol] | 500 to 1000 nM | > 90% | > 1500 nM | > 90% |
| C[C@@]1(O)CC[C@H]2[C@H](CC[C@@H]3[C@@H]2CC[C@]2(C)[C@@H](C4(Cn5cc(C#N)cn5)COC4)CC[C@@H]32)C1 [Example 15, 1-[[3-[(3R,5R,8R,9R,10S,13S,14S,17S)-3-hydroxy-3,13-dimethyl-2,4,5,6,7,8,9,10,11,12,14,15,16,17-tetradecahydro-1H-cyclopenta[a]phenanthren-17-yl]oxetan-3-yl]methyl]pyrazole-4-carbonitrile] | < 500 nM | > 90% | > 1500 nM | > 90% |
| C[C@@]1(O)CC[C@H]2[C@H](CC[C@@H]3[C@@H]2CC[C@]2(C)[C@@H](C4COC4)CC[C@@H]32)C1 [Example 23, (3R,5R,8R,9R,10S,13S,14S,17R)-17-(oxetan-3-yl)-3,13-dimethyl-2,4,5,6,7,8,9,10,11,12,14,15,16,17-tetradecahydro-1H-cyclopenta[a]phenanthren-3-ol] | < 500 nM | 50 to 90% | < 500 nM | 50 to 90% |
| CC1([C@H]2CC[C@H]3[C@@H]4CC[C@H]5C[C@H](O)CC[C@]5(C)[C@H]4CC[C@]23C)CCO1 (stereo partly drawn) [Example 3, (3R,5S,8R,9S,10S,13S,14S,17S)-10,13-dimethyl-17-(2-methyloxetan-2-yl)-2,3,4,5,6,7,8,9,11,12,14,15,16,17-tetradecahydro-1H-cyclopenta[a]phenanthren-3-ol] | 1000 to 1500 nM | < 50% | 1000 to 1500 nM | < 50% |
